Experimental data from PubChem BioAssay (NCI).
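Results reflect a 48-hour exposure of cells in 96-well plates to compound at five concentrations. GI50: concentration for 50% inhibition of growth. Definition used: TGI = concentration required for complete inhibition of growth.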

Tests used:
Experiment in all cases: NCI-60 cell line screen, 48 h
HCC-2998 colon = tested on: HCC-2998 colon
CAKI-1 renal = tested on: CAKI-1 renal
RPMI-8226 leukemia = tested on: RPMI-8226 leukemia
OVCAR-5 ovarian = tested on: OVCAR-5 ovarian
UACC-62 melanoma = tested on: UACC-62 melanoma
A549 NSCLC = tested on: A549 NSCLC
SN12C renal = tested on: SN12C renal
SF-295 CNS = tested on: SF-295 CNS
OVCAR-3 ovarian = tested on: OVCAR-3 ovarian
EKVX NSCLC = tested on: EKVX NSCLC

CCOC(=O)C1C=C2O[C@@H]3OC4(CCCCC4)O[C@@H]3C2[C@H]2C(=O)C=CC(=O)[C@@]12C(=O)OC (stereo not given in full)
TGI (HCC-2998 colon): 28 µM
TGI (CAKI-1 renal): 31.3 µM
TGI (RPMI-8226 leukemia): 8.06 µM
TGI (OVCAR-5 ovarian): 31.7 µM
TGI (UACC-62 melanoma): 30.9 µM
TGI (A549 NSCLC): 33.1 µM
TGI (SN12C renal): 31.5 µM
TGI (SF-295 CNS): 32.6 µM
TGI (OVCAR-3 ovarian): 22.1 µM
TGI (EKVX NSCLC): 36.1 µM

CCOC(=O)/C(C1=N[C@H](C(=O)OCC)CS1)=C(\C)O
TGI (HCC-2998 colon): > 100 µM
TGI (CAKI-1 renal): > 100 µM
TGI (RPMI-8226 leukemia): > 100 µM
TGI (OVCAR-5 ovarian): > 100 µM
TGI (UACC-62 melanoma): > 100 µM
TGI (A549 NSCLC): > 100 µM
TGI (SN12C renal): > 100 µM
TGI (SF-295 CNS): > 100 µM
TGI (OVCAR-3 ovarian): > 100 µM
TGI (EKVX NSCLC): > 100 µM

CCCCN(CCCC)C(=O)C(=O)CC(=O)c1ccc(Br)cc1
TGI (HCC-2998 colon): > 100 µM
TGI (CAKI-1 renal): > 100 µM
TGI (RPMI-8226 leukemia): > 100 µM
TGI (OVCAR-5 ovarian): > 100 µM
TGI (UACC-62 melanoma): > 100 µM
TGI (A549 NSCLC): > 100 µM
TGI (SN12C renal): > 100 µM
TGI (SF-295 CNS): > 100 µM
TGI (OVCAR-3 ovarian): > 100 µM
TGI (EKVX NSCLC): > 100 µM

C[C@@H](c1ccc2nccn2c1)n1nnc2ncc(-c3cnn(C)c3)nc21
GI50 (HCC-2998 colon): > 100 µM
TGI (HCC-2998 colon): > 100 µM
GI50 (CAKI-1 renal): > 100 µM
TGI (CAKI-1 renal): > 100 µM
GI50 (RPMI-8226 leukemia): 47.6 µM
TGI (RPMI-8226 leukemia): > 100 µM
GI50 (OVCAR-5 ovarian): > 100 µM
TGI (OVCAR-5 ovarian): > 100 µM
GI50 (UACC-62 melanoma): > 100 µM
TGI (UACC-62 melanoma): > 100 µM
GI50 (A549 NSCLC): > 100 µM
TGI (A549 NSCLC): > 100 µM
GI50 (SN12C renal): > 100 µM
TGI (SN12C renal): > 100 µM
GI50 (SF-295 CNS): 0.83 µM
TGI (SF-295 CNS): > 100 µM
GI50 (OVCAR-3 ovarian): > 100 µM
TGI (OVCAR-3 ovarian): > 100 µM
GI50 (EKVX NSCLC): > 100 µM
TGI (EKVX NSCLC): > 100 µM

O=C(Nc1ccncc1)C(=O)c1cn(S(=O)(=O)c2ccc(Br)cc2)c2ccccc12
GI50 (HCC-2998 colon): 23.6 µM
TGI (HCC-2998 colon): > 100 µM
GI50 (CAKI-1 renal): 4.44 µM
TGI (CAKI-1 renal): > 100 µM
GI50 (RPMI-8226 leukemia): 4.56 µM
TGI (RPMI-8226 leukemia): > 100 µM
GI50 (OVCAR-5 ovarian): > 100 µM
TGI (OVCAR-5 ovarian): > 100 µM
GI50 (UACC-62 melanoma): 3.79 µM
TGI (UACC-62 melanoma): > 100 µM
GI50 (A549 NSCLC): 15.6 µM
TGI (A549 NSCLC): > 100 µM
GI50 (SN12C renal): 43.5 µM
TGI (SN12C renal): > 100 µM
GI50 (SF-295 CNS): 2.26 µM
TGI (SF-295 CNS): > 100 µM
GI50 (OVCAR-3 ovarian): 4.54 µM
TGI (OVCAR-3 ovarian): > 100 µM
GI50 (EKVX NSCLC): 3.81 µM
TGI (EKVX NSCLC): > 100 µM

Cc1cc(Br)cc(C)c1NC(=O)C(=O)CC(=O)c1sc(-n2nc(-c3ccccc3)cc2-c2ccccc2)nc1C
TGI (HCC-2998 colon): > 100 µM
TGI (CAKI-1 renal): > 100 µM
TGI (RPMI-8226 leukemia): > 100 µM
TGI (OVCAR-5 ovarian): > 100 µM
TGI (UACC-62 melanoma): > 100 µM
TGI (A549 NSCLC): > 100 µM
TGI (SN12C renal): > 100 µM
TGI (SF-295 CNS): > 100 µM
TGI (OVCAR-3 ovarian): > 100 µM
TGI (EKVX NSCLC): > 100 µM

O=C1CC(=O)N(C2CCCCC2)C(=O)N1c1ccccc1S(=O)(=O)Oc1ccccc1
TGI (HCC-2998 colon): > 100 µM
TGI (CAKI-1 renal): > 100 µM
TGI (RPMI-8226 leukemia): 97.1 µM
TGI (OVCAR-5 ovarian): > 100 µM
TGI (UACC-62 melanoma): > 100 µM
TGI (A549 NSCLC): > 100 µM
TGI (SN12C renal): > 100 µM
TGI (SF-295 CNS): > 100 µM
TGI (OVCAR-3 ovarian): > 100 µM
TGI (EKVX NSCLC): > 100 µM

N#C/C(=C\c1c(-c2ccccc2)[nH]c2ccccc12)C(=O)c1ccc(Cl)cc1
GI50 (HCC-2998 colon): 2.11 µM
TGI (HCC-2998 colon): 19.5 µM
GI50 (CAKI-1 renal): 1.23 µM
TGI (CAKI-1 renal): > 31.2 µM
GI50 (RPMI-8226 leukemia): 1.32 µM
TGI (RPMI-8226 leukemia): 20 µM
GI50 (OVCAR-5 ovarian): 8.58 µM
TGI (OVCAR-5 ovarian): 46.9 µM
GI50 (UACC-62 melanoma): 1.46 µM
TGI (UACC-62 melanoma): 33.9 µM
GI50 (A549 NSCLC): 8.44 µM
TGI (A549 NSCLC): > 68.8 µM
GI50 (SN12C renal): 6.91 µM
TGI (SN12C renal): > 78.7 µM
GI50 (SF-295 CNS): 2.18 µM
TGI (SF-295 CNS): 16.4 µM
GI50 (OVCAR-3 ovarian): 1.52 µM
TGI (OVCAR-3 ovarian): 4.65 µM
GI50 (EKVX NSCLC): 5.51 µM
TGI (EKVX NSCLC): > 100 µM

Nc1nc(N)[n+]([O-])c(N)c1NCO
TGI (HCC-2998 colon): > 100 µM
TGI (CAKI-1 renal): > 100 µM
TGI (RPMI-8226 leukemia): > 100 µM
TGI (OVCAR-5 ovarian): > 100 µM
TGI (UACC-62 melanoma): > 100 µM
TGI (A549 NSCLC): > 100 µM
TGI (SN12C renal): > 100 µM
TGI (SF-295 CNS): > 100 µM
TGI (OVCAR-3 ovarian): > 100 µM
TGI (EKVX NSCLC): > 100 µM

COc1cc(C(=O)O)c([N+](=O)[O-])c(OC)c1OC
TGI (HCC-2998 colon): > 100 µM
TGI (CAKI-1 renal): > 100 µM
TGI (RPMI-8226 leukemia): > 100 µM
TGI (OVCAR-5 ovarian): > 100 µM
TGI (UACC-62 melanoma): > 100 µM
TGI (A549 NSCLC): > 100 µM
TGI (SN12C renal): > 100 µM
TGI (SF-295 CNS): > 100 µM
TGI (OVCAR-3 ovarian): > 100 µM
TGI (EKVX NSCLC): > 100 µM

COc1cc(-c2cc(C(=O)N3CCN(C(=O)c4ccccc4NCc4ccco4)CC3)nc3cc(-c4ccccc4)nn23)cc(OC)c1OC
GI50 (HCC-2998 colon): 7.56 µM
TGI (HCC-2998 colon): > 100 µM
GI50 (CAKI-1 renal): 1.34 µM
TGI (CAKI-1 renal): > 100 µM
GI50 (RPMI-8226 leukemia): 3.61 µM
TGI (RPMI-8226 leukemia): > 100 µM
GI50 (OVCAR-5 ovarian): 9.66 µM
TGI (OVCAR-5 ovarian): > 100 µM
GI50 (UACC-62 melanoma): 4.71 µM
TGI (UACC-62 melanoma): > 100 µM
GI50 (A549 NSCLC): 2.13 µM
TGI (A549 NSCLC): > 100 µM
GI50 (SN12C renal): 6.7 µM
TGI (SN12C renal): > 100 µM
GI50 (SF-295 CNS): 1.59 µM
TGI (SF-295 CNS): > 93.1 µM
GI50 (OVCAR-3 ovarian): 1.47 µM
TGI (OVCAR-3 ovarian): 6.27 µM
GI50 (EKVX NSCLC): 5.5 µM
TGI (EKVX NSCLC): > 100 µM

O=C1c2ccccc2-c2c1c1ccccc1c(=O)n2CCO
TGI (HCC-2998 colon): > 100 µM
TGI (CAKI-1 renal): > 51.7 µM
TGI (RPMI-8226 leukemia): > 100 µM
TGI (OVCAR-5 ovarian): > 100 µM
TGI (UACC-62 melanoma): > 59.5 µM
TGI (A549 NSCLC): > 100 µM
TGI (SN12C renal): > 100 µM
TGI (SF-295 CNS): > 96.3 µM
TGI (OVCAR-3 ovarian): > 100 µM
TGI (EKVX NSCLC): > 100 µM

CC(Cl)(/C=C/Cl)C(Cl)/C=C/C(Cl)(CCl)CBr (stereo not given)
TGI (HCC-2998 colon): 33.2 µM
TGI (CAKI-1 renal): 28.1 µM
TGI (RPMI-8226 leukemia): 7.31 µM
TGI (OVCAR-5 ovarian): 29.5 µM
TGI (UACC-62 melanoma): 5.2 µM
TGI (A549 NSCLC): 47.3 µM
TGI (SN12C renal): 12.5 µM
TGI (SF-295 CNS): 20.2 µM
TGI (OVCAR-3 ovarian): 25.3 µM
TGI (EKVX NSCLC): > 77.3 µM
